The source of these data is US10343992B2, “1-cyano-pyrrolidine compounds as USP30 inhibitors” (MISSION THERAPEUTICS LIMITED, priority 2015, dated 2019).

This experiment deals with USP30 (Homo sapiens (Human), UniProt Q70CQ3). Put plainly: USP30 biochemical FP or FI IC50 assay. Conditions: read-out: IC50 range. In outline: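 Human USP30 preincubated 30 min at room temperature with compound (8-point series, 100 µM top final) in Tris pH 7.5, Tween 20, BSA, 5 mM β-mercaptoethanol, in duplicate. FP format: 50 nM TAMRA-peptide–isopeptide-ubiquitin substrate, ex 540/em 590. FI format: 100 nM ubiquitin-rhodamine 110, ex 487/em 535. Both read at 0 and after 2 h at room temperature.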
Chain of USP30 (Q70CQ3 57-517): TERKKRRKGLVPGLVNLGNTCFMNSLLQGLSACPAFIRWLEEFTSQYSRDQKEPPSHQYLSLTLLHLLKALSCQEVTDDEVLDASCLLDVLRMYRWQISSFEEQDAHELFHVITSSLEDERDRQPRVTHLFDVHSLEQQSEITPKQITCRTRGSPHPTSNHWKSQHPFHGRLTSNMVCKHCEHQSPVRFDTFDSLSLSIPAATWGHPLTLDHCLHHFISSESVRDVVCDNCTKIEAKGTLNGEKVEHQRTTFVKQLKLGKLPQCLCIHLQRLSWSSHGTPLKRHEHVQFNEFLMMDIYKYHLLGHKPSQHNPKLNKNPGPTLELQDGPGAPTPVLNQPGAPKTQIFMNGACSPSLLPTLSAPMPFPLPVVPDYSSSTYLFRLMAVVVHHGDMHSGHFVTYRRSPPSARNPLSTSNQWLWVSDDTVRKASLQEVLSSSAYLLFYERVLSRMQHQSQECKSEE
Turning to `CN(C(=O)c1ccc(-c2ccccc2)cc1)C1CCN(C#N)C1` (stereo not drawn) [Example 68, N-(1-cyanopyrrolidin-3-yl)-N-methyl-[1,1′-biphenyl]-4-carboxamide], the IC50 (commonly the concentration that gives 50% inhibition) is 100 to 1000 nM.
For `N#CN1CC[C@@H](NC(=O)c2ccc(Nc3nccc(C4CC4)n3)c(F)c2)C1` [Example 213, (R)-N-(1-cyanopyrrolidin-3-yl)-4-((4-cyclopropylpyrimidin-2-yl)amino)-3-fluorobenzamide], the IC50 is < 100 nM.
`COc1ccc(-c2cc(C(=O)N[C@@H]3CCN(C#N)C3)n[nH]2)cc1` [Example 95, (R)-N-(1-cyanopyrrolidin-3-yl)-5-(4-methoxyphenyl)-1H-pyrazole-3-carboxamide]: the IC50 was < 100 nM.
Consider `COc1cc(C(=O)N2CC[C@@H]3CN(C#N)C[C@@H]32)ccc1-c1ccncc1Cl` (racemic) [Example 59, rac-(3aR,6aR)-1-(4-(3-chloropyridin-4-yl)-3-methoxybenzoyl)hexahydropyrrolo[3,4-b]pyrrole-5(1H)-carbonitrile], for which the IC50 was in the range of 100 to 1000 nM.
For `Cn1cc(-c2ccn3c(C(=O)N[C@@H]4CCN(C#N)C4)ncc3c2)cn1` [Example 233, (R)-N-(1-cyanopyrrolidin-3-yl)-7-(1-methyl-1H-pyrazol-4-yl)imidazo[1,5-a]pyridine-3-carboxamide], the IC50 lay in the range of 100 to 1000 nM.
Then `N#CN1CC[C@@H](NC(=O)c2ccc(-c3ccnnc3)cc2F)C1` [Example 152, (R)-N-(1-cyanopyrrolidin-3-yl)-2-fluoro-4-(pyridazin-4-yl)benzamide], with 100 to 1000 nM; and `CN(C(=O)Nc1cccc(Cl)c1)C1CCN(C#N)C1` (stereo not drawn) [Example 257, 3-(3-chlorophenyl)-1-(1-cyanopyrrolidin-3-yl)-1-methylurea], with 100 to 1000 nM.
As to `Cc1noc(C)c1-c1ccc2cc(C(=O)N[C@@H]3CCN(C#N)C3)[nH]c2c1` [Example 128, (R)-N-(1-cyanopyrrolidin-3-yl)-6-(3,5-dimethylisoxazol-4-yl)-1H-indole-2-carboxamide], the half-maximal inhibitory concentration (IC50) is < 100 nM.
With `N#CN1C[C@H]2CCN(C(=O)c3cc(-c4ccccc4)no3)[C@H]2C1` (racemic) [Example 53, rac-(3aR,6aR)-1-(3-phenylisoxazole-5-carbonyl)hexahydropyrrolo[3,4-b]pyrrole-5(1H)-carbonitrile], the IC50 fell in the range of 100 to 1000 nM.
For `N#CN1CC[C@@H](NC(=O)c2ccc(N3CCCC3)cc2F)C1` [Example 143, (R)-N-(1-cyanopyrrolidin-3-yl)-2-fluoro-4-(pyrrolidin-1-yl)benzamide], the 50% inhibitory concentration (IC50) was < 100 nM.
`Cc1cc(-c2ccc(NC(=O)N3CC[C@@H]4CN(C#N)C[C@@H]43)cc2)ccn1` [Example 242, (3aR,6aR)-5-cyano-N-(4-(2-methylpyridin-4-yl)phenyl)hexahydropyrrolo[3,4-b]pyrrole-1(2H)-carboxamide]: the IC50 is < 100 nM.
Turning to `N#CN1C[C@H]2CCN(C(=O)c3cc(-c4ccccc4)n[nH]3)[C@H]2C1` (stereo in doubt) [Example 246, 1-(3-phenyl-1H-pyrazole-5-carbonyl)hexahydropyrrolo[3,4-b]pyrrole-5(1H)-carbonitrile], the IC50 fell in the range of 100 to 1000 nM.
As to `N#CN1CC[C@@H](NC(=O)c2ccc(-c3ccncn3)cc2F)C1` [Example 108, (R)-N-(1-cyanopyrrolidin-3-yl)-2-fluoro-4-(pyrimidin-4-yl)benzamide], the concentration for half-maximal inhibition (IC50) lay in the range of 100 to 1000 nM.
The value for `Cc1ncc(F)c(-c2ccc(C(=O)N[C@@H]3CCN(C#N)C3)c(F)c2)n1` [Example 182, (R)-N-(1-cyanopyrrolidin-3-yl)-2-fluoro-4-(5-fluoro-2-methylpyrimidin-4-yl)benzamide] was < 100 nM; that for `N#CN1CC[C@@H](NC(=O)N2CC(c3ccnc(-c4ccc(Cl)cc4)n3)C2)C1` [Example 237, (R)-3-(2-(4-chlorophenyl)pyrimidin-4-yl)-N-(1-cyanopyrrolidin-3-yl)azetidine-1-carboxamide] was < 100 nM.
The value for `Cc1cn(-c2ccc(C(=O)N(C)[C@@H]3CCN(C#N)C3)cc2F)cn1` [Example 224, (R)-N-(1-cyanopyrrolidin-3-yl)-3-fluoro-N-methyl-4-(4-methyl-1H-imidazol-1-yl)benzamide] was 100 to 1000 nM.
Regarding `N#CN1CC[C@@H](NC(=O)N2CC(c3ccc(Cl)cc3)C2)C1` [Example 191, (R)-3-(4-chlorophenyl)-N-(1-cyanopyrrolidin-3-yl)azetidine-1-carboxamide], the half-inhibitory concentration (IC50) is < 100 nM.
Take `N#CN1C[C@H]2CCN(C(=O)Nc3ccc(C(F)(F)F)cc3F)[C@H]2C1` [Example 90, (3aR,6aR)-5-cyano-N-(2-fluoro-4-(trifluoromethyl)phenyl)hexahydropyrrolo[3,4-b]pyrrole-1(2H)-carboxamide]: the IC50 was < 100 nM.
`Cn1ncc2cc(-c3ccc(C(=O)N[C@@H]4CCN(C#N)C4)c(F)c3)ccc21` [Example 86, (R)-N-(1-cyanopyrrolidin-3-yl)-2-fluoro-4-(1-methyl-1H-indazol-5-yl)benzamide]: the IC50 is < 100 nM.
In the case of `C[C@H]1CN(C#N)C[C@@H]1NC(=O)c1ncc(-c2ccccc2)s1` [Example 69, N-((3R,4S)-1-cyano-4-methylpyrrolidin-3-yl)-5-phenylthiazole-2-carboxamide], the IC50 lay within 1000 to 10000 nM.
Then `N#CN1CC[C@@H](NC(=O)c2n[nH]c3ccccc23)C1` [Example 101, (R)-N-(1-cyanopyrrolidin-3-yl)-1H-indazole-3-carboxamide], with 100 to 1000 nM.
Then `CC(=O)N1CCCN(c2cc(C(=O)NC3CCN(C#N)C3)ccn2)CC1` (racemic) [Example 28, 2-(4-acetyl-1,4-diazepan-1-yl)-N-(1-cyanopyrrolidin-3-yl)isonicotinamide], with 1000 to 10000 nM.
For the compound `COc1cc(C(=O)N[C@@H]2CCN(C#N)C2)ccc1-c1ccnc(N2CCOCC2)c1` [Example 41, (R)-N-(1-cyanopyrrolidin-3-yl)-3-methoxy-4-(2-morpholinopyridin-4-yl)benzamide], the IC50 was in the range of 100 to 1000 nM.
The value for `Cc1cc(-c2ccc(NC(=O)N3CC[C@@H]4CN(C#N)C[C@@H]43)c(F)c2)ccn1` [Example 243, (3aR,6aR)-5-cyano-N-(2-fluoro-4-(2-methylpyridin-4-yl)phenyl)hexahydropyrrolo[3,4-b]pyrrole-1(2H)-carboxamide] was 100 to 1000 nM.
As for `COc1ccc(-c2cc(C(=O)N3CC[C@@H]4CN(C#N)C[C@@H]43)on2)cc1` (racemic) [Example 56, rac-(3aR,6aR)-1-(3-(4-methoxyphenyl)isoxazole-5-carbonyl)hexahydropyrrolo[3,4-b]pyrrole-5(1H)-carbonitrile], the 50% inhibitory concentration (IC50) is 100 to 1000 nM.
As for `N#CN1CC[C@@H](NC(=O)c2ncc(-c3ccc4nccn4c3)cc2F)C1` [Example 187, (R)-N-(1-cyanopyrrolidin-3-yl)-3-fluoro-5-(imidazo[1,2-a]pyridin-6-yl)picolinamide], the IC50 fell in the range of 100 to 1000 nM.
In the case of `N#CN1CC[C@@H](NC(=O)c2ncc(-c3ccn4nccc4n3)cc2F)C1` [Example 186, (R)-N-(1-cyanopyrrolidin-3-yl)-3-fluoro-5-(pyrazolo[1,5-a]pyrimidin-5-yl)picolinamide], the IC50 was in the range of 100 to 1000 nM.
With `CCN(C(=O)N1CC(c2ccccc2)C1)[C@@H]1CCN(C#N)C1` [Example 207, (R)-N-(1-cyanopyrrolidin-3-yl)-N-ethyl-3-phenylazetidine-1-carboxamide], the concentration for half-maximal inhibition (IC50) lay within 100 to 1000 nM.
Regarding `N#CN1C[C@H]2CCN(C(=O)c3ccc(F)c(-c4ccncc4)c3)[C@H]2C1` (racemic) [Example 57, rac-(3aR,6aR)-1-(4-fluoro-3-(pyridin-4-yl)benzoyl)hexahydropyrrolo[3,4-b]pyrrole-5(1H)-carbonitrile], the IC50 is 100 to 1000 nM.
Turning to `N#CN1CC[C@@H](NC(=O)c2cnc(-c3ccccc3Cl)s2)C1` [Example 37, (R)-2-(2-chlorophenyl)-N-(1-cyanopyrrolidin-3-yl)thiazole-5-carboxamide], the IC50 was < 100 nM.
Take `N#CN1CC[C@@H](NC(=O)N2CC(c3ccccc3)C2)C1` [Example 5, (R)—N-(1-cyanopyrrolidin-3-yl)-3-phenylazetidine-1-carboxamide]: the IC50 lay within 100 to 1000 nM.
For the compound `N#CN1CC[C@@H](NC(=O)c2ccc(-c3ccccc3)cn2)C1` [Example 1, (R)—N-(1-cyanopyrrolidin-3-yl)-5-phenylpicolinamide], the IC50 is 100 to 1000 nM.
With `N#CN1CC[C@@H](NC(=O)N2CC(c3ccn(-c4ccccc4)n3)C2)C1` [Example 234, (R)-N-(1-cyanopyrrolidin-3-yl)-3-(1-phenyl-1H-pyrazol-3-yl)azetidine-1-carboxamide], the IC50 was < 100 nM.
Consider `N#CN1CC[C@@H](NC(=O)N2CCN(c3ccccc3)CC2)C1` [Example 135, (R)-N-(1-cyanopyrrolidin-3-yl)-4-phenylpiperazine-1-carboxamide], for which the IC50 is 100 to 1000 nM.
Then `N#CN1CC[C@@H](NC(=O)N2CCC(c3ccccn3)C2)C1` (stereo partly drawn) [Example 225, N-((R)-1-cyanopyrrolidin-3-yl)-3-(pyridin-2-yl)pyrrolidine-1-carboxamide], with 1000 to 10000 nM; and `N#CN1CC[C@@H](NC(=O)c2cc(-c3cccnc3)no2)C1` [Example 65, (R)-N-(1-cyanopyrrolidin-3-yl)-3-(pyridin-3-yl)isoxazole-5-carboxamide], with 100 to 1000 nM; and `CN(C(=O)Nc1ccnc(N2Cc3ccccc3C2)c1)[C@@H]1CCN(C#N)C1` [Example 231, (R)-1-(1-cyanopyrrolidin-3-yl)-3-(2-(isoindolin-2-yl)pyridin-4-yl)-1-methylurea], with 100 to 1000 nM.
As for `N#CN1CCC(NC(=O)c2cn(-c3ccccc3)cn2)C1` (racemic) [Example 9, N-(1-cyanopyrrolidin-3-yl)-1-phenyl-1H-imidazole-4-carboxamide], the IC50 was 100 to 1000 nM.
The value for “(R)-N-(1-cyanopyrroldidin-3-yl)-6-(3,5-dimethylisoxazol-4-yl)-N-methyl-1H-indole-2-carboxamide [Example 262]” was < 100 nM.
